From ChEMBL document CHEMBL3112462, “2-acylamino-5-nitro-1,3-thiazoles: preparation and in vitro bioevaluation against four neglected protozoan parasites” (Bioorg Med Chem, 2014)

What was measured:
[1] = system: Leishmania amazonensis; experiment: Antimicrobial activity against promastigote stage of Leishmania amazonensis IFLA/BR/67/PH-8 clinical isolate after 72 hrs by Neubauer chamber analysis; format: functional, organism-based; details: IFLA/BR/67/PH-8, 72 h
[2] = system: Trichomonas vaginalis; experiment: Antimicrobial activity against Trichomonas vaginalis GT3 incubated for 48 hrs followed by compound washout measured after 48 hrs; format: functional, organism-based; details: GT3, 48 h
[3] = system: Giardia intestinalis; experiment: Antimicrobial activity against Giardia intestinalis IMSS:0696:1 incubated for 48 hrs followed by compound washout measured after 48 hrs; format: functional, organism-based; details: Giardia duodenalis, IMSS:0696:1, 48 h
[4] = Selectivity index, ratio of CC50 for African green monkey Vero cells to IC50 for Trichomonas vaginalis GT3; format: functional
[5] = Selectivity index, ratio of CC50 for African green monkey Vero cells to IC50 for Giardia intestinalis IMSS:0696:1; format: functional
[6] = system: Trichomonas vaginalis; experiment: Ratio of metronidazole IC50 to compound IC50 for Trichomonas vaginalis GT3; format: functional
[7] = Cytotoxicity against African green monkey Vero cells assessed as cell viability after 48 hrs by SRB assay; format: cell-based; details: chlorocebus sabaeus
[8] = system: Trypanosoma cruzi; experiment: Antimicrobial activity against epimastigote stage of Trypanosoma cruzi MHOM/MX/1994/Ninoa clinical isolate after 72 hrs by Neubauer chamber analysis; format: functional, organism-based
[9] = system: Giardia intestinalis; experiment: Ratio of metronidazole IC50 to compound IC50 for Giardia intestinalis IMSS:0696:1; format: functional, Giardia duodenalis
[10] = system: Trypanosoma cruzi; experiment: Ratio of benznidazole IC50 to compound IC50 for epimastigote stage of Trypanosoma cruzi MHOM/MX/1994/Ninoa clinical isolate; format: functional
[11] = system: Leishmania amazonensis; experiment: Ratio of pentamidine IC50 to compound IC50 for promastigote stage of Leishmania amazonensis IFLA/BR/67/PH-8 clinical isolate; format: functional

Compound	IC50 [1]	IC50 ([2]; read-out: IC50)	IC50 ([2]; read-out: pIC50 (converted))	IC50 ([3]; read-out: IC50)	IC50 ([3]; read-out: pIC50 (converted))	Ratio CC50/IC50 [4]	Ratio CC50/IC50 [5]	Ratio IC50 [6]	CC50 at 48 h [7]	IC50 [8]	Ratio IC50 [9]	Ratio IC50 [10]	Ratio IC50 [11]
CCOC(=O)C(=O)Nc1ncc([N+](=O)[O-])s1	> 50 µM	0.01 µM	0.01 µM	6.41 µM	6.46 µM	141500	220	29	1420 µM	> 50 µM			
N=C(N)c1ccc(OCCCCCOc2ccc(C(=N)N)cc2)cc1 [PENTAMIDINE]	14.3 µM								47 µM	> 50 µM			
O=C(Nc1ccc([N+](=O)[O-])cc1)Nc1ncc([N+](=O)[O-])s1	> 50 µM	0.958 µM	1 µM	15.3 µM	15.5 µM					> 50 µM			
O=C(Nc1ncc([N+](=O)[O-])s1)NC1CCCCC1	> 50 µM	1.65 µM	2 µM	0.359 µM	0.363 µM				> 1000 µM	> 50 µM	11		
Nc1ncc([N+](=O)[O-])s1	> 50 µM	52.9 µM	63.1 µM	29.6 µM	27.5 µM				441 µM	> 50 µM			
CCCCC(=O)Nc1ncc([N+](=O)[O-])s1	> 50 µM	0.305 µM	0.316 µM	0.398 µM	0.398 µM				> 1000 µM	> 50 µM	11		
O=C(Nc1ccc(Cl)cc1)Nc1ncc([N+](=O)[O-])s1	37.2 µM	1.03 µM	1.26 µM	0.577 µM	0.589 µM				> 1000 µM	> 50 µM	11		
Cc1ncc([N+](=O)[O-])n1CCO [METRONIDAZOLE]	> 50 µM		0.316 µM						387 µM	> 50 µM			
O=C(Nc1ccc(F)cc1)Nc1ncc([N+](=O)[O-])s1	> 50 µM	1.23 µM	1.26 µM	7.83 µM	7.94 µM				> 1000 µM	> 50 µM			
CC(=O)Nc1ncc([N+](=O)[O-])s1 [NITHIAMIDE]	> 50 µM	0.022 µM	0.0251 µM	0.49 µM	0.501 µM			13	> 1000 µM	> 50 µM	11		
CCCCOc1ccc(NC(=O)Nc2ncc([N+](=O)[O-])s2)cc1	> 50 µM	0.387 µM	0.398 µM	1.8 µM	1.82 µM				58 µM	> 50 µM			
O=C(Cn1ccnc1[N+](=O)[O-])NCc1ccccc1 [BENZNIDAZOLE]	> 50 µM								14 µM				
COC(=O)Nc1ncc([N+](=O)[O-])s1	> 50 µM	0.081 µM	0.1 µM	0.01 µM	0.01 µM	30407	246300	4	2460 µM	> 50 µM	536		
CCOc1ccc(NC(=O)Nc2ncc([N+](=O)[O-])s2)cc1	> 50 µM	0.282 µM	0.316 µM	3.75 µM	3.8 µM				> 1000 µM	> 50 µM			
O=C(Nc1ccccc1)Nc1ncc([N+](=O)[O-])s1	38.5 µM			2.57 µM	2.57 µM				> 1000 µM	> 50 µM			
COc1ccc(NC(=O)Nc2ncc([N+](=O)[O-])s2)cc1	32.2 µM	1.3 µM	1.58 µM	29.1 µM	29.5 µM					> 50 µM			
CC(=O)Oc1ccccc1C(=O)Nc1ncc([N+](=O)[O-])s1 [NITAZOXANIDE]	7.23 µM		0.0794 µM		1.23 µM				833 µM			2	2
CCCCCCCCCCCCCCCC(=O)Nc1ncc([N+](=O)[O-])s1	> 50 µM	2.58 µM	3.16 µM	1.63 µM	1.66 µM				> 1000 µM	> 50 µM			
